Values quoted from earlier work as cited in patent US20260166148A1, “MAGNETOSTRICTIVE PIEZOELECTRIC NANOASSEMBLY AS CANCER CHEMOTHERAPEUTIC” (GRANT DEMARTINO INDUSTRIES LLC, priority 2021, published 2026).

Tests used:
[1] = system: human tumor cells
[2] = as studied by Jun Yang et al. [18]

SMILES | IC50 values in human tumor cells ([1]; when activated (photosensitizer irradiated)) | apoptosis induction, killing the cells (cellular effect) ([1]; when activated, human tumor cells) | water solubility [2]
COc1ccc(C2=[N+]3C(=Nc4c(-c5ccccc5)c(Br)c(-c5ccc(OC)cc5)n4[B-]3(F)F)C(c3ccccc3)=C2Br)cc1 [ADPM06] | micromolar range | induces apoptosis | –
CC(C)(N=NC(C)(C)C1=NCCN1)C1=NCCN1.Cl.Cl [AIPH, 2,2′-Azobis(2-(2-imidazolin-2-yl)propane) dihydrochloride] | – | – | excellent
